Results reported in patent US20230372272A1, “USE OF CYSTINE AND DERIVATIVES THEREOF AS ANTI-THROMBOTIC AND THROMBOLYTIC AGENTS” (Georgia Tech Research Corporation, priority 2020, published 2023).

Legend:
[1] = tested on: platelet-rich thrombi from heparinized human whole blood; assay: Example 4: thrombolysis of human blood thrombi in 3 mm collagen-coated stenotic capillary tubes; type: cell-based; conditions: perfusion, human whole blood thrombus
Experimental: In this example, an in-vitro randomized trial was performed using heparinized human blood in collagen-coated glass capillary tubes with a designed stenosis, mimicking arterial disease. Heparinized human blood was then infused through 3 mm capillary tubes at a constant flow rate, during which near-occlusive thrombi were formed at the region of stenosis (FIG. 11). DiNAC was then infused at a constant flow rate through the capillary tubes in order to observe thrombolytic activity, using a combination of live pressure monitoring and microscopic image capture. All infusions were control-matched with a phosphate-buffered saline solution in lieu of DiNAC.

[2] = tested on: VWF- and platelet-rich white thrombi; assay: Lysis of platelet-rich white thrombi in collagen-coated stenotic capillary tube under arterial shear (perfusion of lytic agents); type: cell-based, Porcine; conditions: 0.02 mg/ml, 60 min perfusion
Experimental: Collagen Coating: The stenotic glass test sections (inner diameter=1.5 mm) described herein were made by the Chemistry and Biochemistry Glass Shop at Georgia Institute of Technology. The % stenosis by diameter reduction ranged from 60% to 80%. Fibrillar equine collagen (type I; Chrono-Log Corporation, Havertown, PA) was diluted 9:1 in NaCl (Sigma-Aldrich, St. Louis, MO) and incubated in the test section at the stenosis for 24 h in a warm, moist environment (Para, A., Bark, D., Lin, A. & Ku, D. Rapid platelet accumulation leading to thrombotic occlusion. Ann Biomed Eng 39, 1961-1971, 2011; Para, A. N. & Ku, D. N. A low-volume, single pass in-vitro system of high shear thrombosis in a stenosis. Thromb Res 131, 418-424, 2013).
(§1) Blood Collection: Porcine blood was collected at a local abattoir immediately following slaughter into 3.5 U/mL heparin (Thermo Fisher Scientific, Waltham, MA) or 3.2% sodium citrate (Sigma-Aldrich, St. Louis, MO). Whole blood was gently agitated using an Orbit LS shaker (Laboratory Supply Network, Atkinson, NH) until perfusion and used in experiments as soon as possible the same day as collection.
Syringe Perfusion: Lightly heparinized whole blood was perfused through the stenotic test section using a syringe pump. The flow rate was set so that the initial wall shear rate in the stenosis was 3,500 s^−1. A pressure transducer was connected in-line upstream of the stenosis (FIG. 2A). A dissecting microscope with a camera (PCO-Tech Incorporated, Romulus, MI) was used to capture images in real-time during perfusion. Blood perfusion continued until the upstream pressure increased by 30 mmHg (equivalent to an arterial pressure head in vivo) as a result of platelet thrombus formation in the stenotic section. Perfusion with a syringe pump (constant flow rate over constant pressure head) ensured that the thrombi were never fully occlusive, allowing subsequent perfusion for the induction of lysis.
Pharmacologic Agents: Recombinant human tPA (Sigma-Aldrich, St. Louis, MO), recombinant human ADAMTS-13 (MyBiosource, San Diego, CA), abciximab (ReoPro was kindly provided by Dr. Kevin Maher at Emory/CHOA), NAC (Thermo Fisher Scientific, Waltham, MA), and DiNAC (Cayman Chemical, Ann Arbor, Ml) or control (PBS) treatments were perfused for an hour at a flow rate of 1 ml/min. Agent solutions were made by dissolution or dilution in PBS. The in vitro flow system setup and image acquisition are shown in FIG. 2, and the concentrations of each agent are detailed in Table 2.
Real-time image capture (5 frames per second) of the stenosis continued throughout treatment perfusion.
Data Analysis: The thrombi surface area (which was colored green) was calculated using manual pixel counting in the open-source GNU Image Manipulation Program (GIMP, Version 2.10.8, 1995-2018). Surface area reduction was calculated by % pixel reduction versus the occlusion image. Analysis of variance (ANOVA) was used to test for statistical differences between groups, with the significance set at p<0.05.
In this example, a stenotic capillary tube model, which potentiates VWF- and platelet-rich white thrombi in an arterial setting on a collagen-coated stenosis was used (Para, A., Bark, D., Lin, A. & Ku, D. Rapid platelet accumulation leading to thrombotic occlusion. Ann Biomed Eng 39, 1961-1971, 2011; Ku, D. N. & Flannery, C. J. Development of a flow-through system to create occluding thrombus. Biorheology 44, 273-284, 2007; Para, A. N. & Ku, D. N. A low-volume, single pass in-vitro system of high shear thrombosis in a stenosis. Thromb Res 131, 418-424, 2013) to test lysis of 90% occlusive white thrombi (FIG. 2) and perfused low (2 mM) and high (20 mM) concentrations of NAC and DiNAC solutions. As illustrated in FIG. 2. DiNAC, but not NAC, achieved thrombolysis over 60 minutes of perfusion (FIG. 3A-3D). 2 mM and 20 mM DiNAC lysed most of the thrombi (>95%) within 14 min and 1.5 min, respectively (FIG. 3A-3B).

[3] = tested on: fibrin clots from recalcified citrated whole blood; assay: Red clot lysis under stagnant conditions, whole blood clots; type: cell-based, Porcine
Description: as §1
(§2) Red clot formation and lysis: Platelet rich plasma (PRP) was made by separating citrated whole blood via gravity over a 2 h period and collecting the supernatant. Separation via gravity was employed instead of centrifugation to avoid platelet damage and activation. Citrated whole blood or PRP was then recalcified with CaCl2 to a final [Ca^2+] of 10 mM (Griffin, M. T., Kim, D. & Ku, D. N. Shear-induced platelet aggregation: 3D-grayscale microfluidics for repeatable and localized occlusive thrombosis. Biomicrofluidics 13, 2019), and 200 μl was transferred into 500 μal centrifuge tubes and allowed to clot and retract for 30 min. The clot was then incubated with 100 μl of either agent or control solution. The treatment solution was exchanged by removing the top 100 μl and replacement with fresh solution at 3, 6, 12, 24, and 48 h of incubation. The weight of the tube was measured immediately post-clot formation and at each timepoint after removal of old solution and prior to the replacement with fresh solution.

[4] = tested on: FeCl3 injury-induced thrombus; set-up: dose or concentration left out as unconfirmed; conditions: after a 60 min treatment; FeCl3 injury in vivo; ADAMTS-13; cited from earlier work
[5] = tested on: fibrin clots from recalcified platelet rich plasma (PRP); assay: Red clot lysis under stagnant conditions, PRP clots; type: cell-based, Porcine
Description: as §1, §2

[6] = stroke patients, clinical trial; cited from earlier work
[7] = clinical study; cited from earlier work

## tPA: Recombinant human tissue plasminogen activator, a serine protease converting plasminogen to plasmin
[1]
  effect on clots and flow: did not alter the clots or restore flow
[2]
  thrombus surface area reduction: 23±4%
[3]; fibrin clots, static conditions, over 48 h
  clot dissolution front speed: ~3.5 μm/min
[3]; whole blood clot, 48 h, DiNAC and NAC at 2 mM
  whole blood clot lysis over 48 h: large decrease in clot volume
[3]; whole blood clot, after 6 h
  clot weight reduction from baseline: 26%
[4]
  reduction of thrombus size: 53.2%
[5]; 48 h, DiNAC and NAC at 2 mM
  PRP clot lysis over 48 h: large decrease in clot volume
[5]; after 12 h
  clot weight reduction from baseline: 36%
[6]
  relative risk reduction versus the placebo: 30%
[7]
  recanalization rate: less than 30%
